According to US9060541B2, “Sterilizer for foods” (Kawakami Co., Ltd., priority 2009, dated 2015):

Columns and labels:
Format in all cases: cell-based
Set-up in all cases: key: D: There is no sterilization effect.; C: There is a sterilization effect in step (1) but no sterilization effect in step (2).; B: There is a sterilization effect up to step (2) but no sterilization effect in step (3).; A: There is a sterilization effect up to step (3)
[1] = tested on: Salmonella serotype Agona KX-S143; experiment: Comparison test of sterilization effects against various food poisoning microbes
[2] = tested on: Enteroinvasive Escherichia coli O28ac KX-E63; experiment: as above
[3] = tested on: Enterotoxigenic Escherichia coli RIMD 0509267; experiment: as above
Escherichia coli (NIHJ) = experiment: Sterilization effect determination test (Fujimoto's modified method of the Kelsey-Sykes method); details: Table 1; compositions of calcinated calcium and ethanol, water remainder; 20° C.; steps (1)-(3); listed as Ethanol 30 wt %
[4] = tested on: Staphylococcus aureus (209P); experiment: as above; details: Table 2; compositions of calcinated calcium and ethanol, water remainder; 20° C.; steps (1)-(3); listed as Ethanol 30 wt %
[5] = Table 7, test microbe solution without yeast extract
[6] = Table 8, yeast extract 4 weight % blended in test microbe solution

Row | Structure (SMILES) | Sterilization effect [1, 5] | Sterilization effect [1, 6] | Sterilization effect [2, 5] | Sterilization effect [2, 6] | Sterilization effect [3, 5] | Sterilization effect [3, 6] | Sterilization effect (Escherichia coli (NIHJ)) | Sterilization effect [4]
1 | [Na+].[O-]Cl [S.H 150 ppm, sodium hypochlorite] | A | D | A | D | A | D | – | –
2 | CCO [EtOH 30%, ethanol] | C | C | C | C | D | D | C | D
